{
  "source": "paper PMC6332508",
  "about": "“A Promising PET Tracer for Imaging of α7 Nicotinic Acetylcholine Receptors in the Brain: Design, Synthesis, and in Vivo Evaluation of a Dibenzothiophene-Based Radioligand” (Molecules, 2015)",
  "key": {"α7 nAChR [1]": {"target": "α7 nAChR", "design": "method as in PMID 22281189", "details": "cited from earlier work"}, "human 5-HT3 receptor": {"target": "T1, human 5-HT3 receptor (Homo sapiens, UniProt P46098)", "T1 construct": "host or cells: HEK-293", "T1 sequence (P46098 24-478)": "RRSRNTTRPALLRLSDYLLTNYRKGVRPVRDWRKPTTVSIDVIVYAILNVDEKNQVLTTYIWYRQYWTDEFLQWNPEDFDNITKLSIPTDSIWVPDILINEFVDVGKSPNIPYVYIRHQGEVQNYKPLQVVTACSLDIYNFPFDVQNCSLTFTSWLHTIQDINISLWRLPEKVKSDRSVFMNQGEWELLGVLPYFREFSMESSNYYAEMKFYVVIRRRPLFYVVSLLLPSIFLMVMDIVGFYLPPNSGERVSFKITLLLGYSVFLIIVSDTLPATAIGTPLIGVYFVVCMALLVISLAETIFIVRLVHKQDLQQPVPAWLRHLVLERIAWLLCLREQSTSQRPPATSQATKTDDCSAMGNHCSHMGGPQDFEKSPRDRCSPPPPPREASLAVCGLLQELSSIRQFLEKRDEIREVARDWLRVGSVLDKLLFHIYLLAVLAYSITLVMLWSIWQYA", "test": "Radioligand binding at human 5-HT3 receptor, [3H]GR65630 (Eurofins Panlabs)"}, "[2]": {"test": "Acute toxicity study in rats, single intravenous injection", "type": "in vivo, Wistar rats", "description": "The acute toxicity of 10a was assessed when administered by a single intravenous injection to rats followed by an observation period of 2 or 15 day (Hameln rds, Modra, Slovak Republic). The study was performed with 4 test groups, including 1 control and 3 dose groups (6.2, 62 and 620 μg∙kg^−1), with 60 males and 60 females Wistar rats divided into two experiment cohorts: Day 2 (40 males and 40 females) and Day 15 (20 males and 20 females). The animals were weighed and allocated to the test groups based on their body weights. The animals were sacrificed in two time periods (day 2 and day 15 after test item administration) and then examined macroscopically and histopathologically. The following parameters were evaluated: mortality, clinical observation, body weights, food consumption, haematology (white blood cells, red blood cells, hemoglobin, hematocrit, mean corpuscular volume, mean corpuscular hemoglobin, platelets, lympohcytes, neutrophils, eosinophils, basophils, monocytes), clinical chemistry (alkaline phosphatase, aspartate aminotransferase, alanine aminotransferase, glucose, cholesterol, triacylglycerols, creatinine, urea, bilirubin, albumin, calcium, phosphorus, sodium, potassium chloride), pathology and histopathology."}, "[3]": {"target": "T2, norepinephrine transporter (NET) (Homo sapiens, UniProt P23975)", "T2 construct": "Eurofins Panlabs, Inc", "test": "Off-target radioligand binding assay, NET", "details": "1 μM; significant at ≥50% inhibition or stimulation", "description": "(§1) The activity of compound 10a was evaluated by a contract research organization (Eurofins Panlabs, Inc.). The test concentration was 1 μM and radioligand binding assays for dopamine transporter (DAT), serotonin transporter (SERT), norepinephrine transporter (NET), monoamine transporter (VMAT), choline transporter, and α1 nAChR performed according to the manufacturer’s protocols."}, "choline transporter": {"target": "T3, choline transporter (Homo sapiens, UniProt Q9GZV3)", "T3 construct": "Eurofins Panlabs, Inc", "T3 sequence (Q9GZV3 1-580)": "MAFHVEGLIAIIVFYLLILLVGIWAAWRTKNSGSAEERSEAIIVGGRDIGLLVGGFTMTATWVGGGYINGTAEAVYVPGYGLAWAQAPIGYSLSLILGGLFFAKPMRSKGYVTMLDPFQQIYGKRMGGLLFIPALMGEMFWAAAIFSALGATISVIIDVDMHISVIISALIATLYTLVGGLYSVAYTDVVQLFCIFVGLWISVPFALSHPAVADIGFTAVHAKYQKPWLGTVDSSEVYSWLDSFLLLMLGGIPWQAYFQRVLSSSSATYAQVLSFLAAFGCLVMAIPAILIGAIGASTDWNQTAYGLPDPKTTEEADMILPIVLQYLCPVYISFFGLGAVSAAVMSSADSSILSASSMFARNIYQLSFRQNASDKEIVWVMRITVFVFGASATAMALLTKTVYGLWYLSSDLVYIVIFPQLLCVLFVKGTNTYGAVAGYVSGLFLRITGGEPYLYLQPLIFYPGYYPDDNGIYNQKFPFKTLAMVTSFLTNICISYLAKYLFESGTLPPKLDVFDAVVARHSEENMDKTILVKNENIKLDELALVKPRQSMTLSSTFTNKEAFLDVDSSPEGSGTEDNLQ", "test": "Off-target radioligand binding assay, choline transporter", "details": "1 μM; significant at ≥50% inhibition or stimulation", "description": "as §1"}, "α1 nAChR": {"target": "T4, α1 nAChR (Homo sapiens, UniProt P02708+P07510+Q07001)", "T4 construct": "Eurofins Panlabs, Inc", "T4 sequence (P02708 21-457)": "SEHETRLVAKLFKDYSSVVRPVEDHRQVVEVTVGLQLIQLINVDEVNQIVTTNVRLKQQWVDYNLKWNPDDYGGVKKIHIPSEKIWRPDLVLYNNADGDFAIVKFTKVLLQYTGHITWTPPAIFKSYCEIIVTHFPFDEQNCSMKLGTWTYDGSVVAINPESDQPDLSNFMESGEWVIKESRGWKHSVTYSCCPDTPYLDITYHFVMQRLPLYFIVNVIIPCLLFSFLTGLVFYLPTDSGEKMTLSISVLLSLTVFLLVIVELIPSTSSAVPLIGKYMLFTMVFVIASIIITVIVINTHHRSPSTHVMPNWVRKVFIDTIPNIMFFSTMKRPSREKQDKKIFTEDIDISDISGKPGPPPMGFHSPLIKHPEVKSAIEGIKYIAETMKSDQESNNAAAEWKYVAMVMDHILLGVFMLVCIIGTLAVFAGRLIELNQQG", "T4 sequence (P11230 24-501 partner)": "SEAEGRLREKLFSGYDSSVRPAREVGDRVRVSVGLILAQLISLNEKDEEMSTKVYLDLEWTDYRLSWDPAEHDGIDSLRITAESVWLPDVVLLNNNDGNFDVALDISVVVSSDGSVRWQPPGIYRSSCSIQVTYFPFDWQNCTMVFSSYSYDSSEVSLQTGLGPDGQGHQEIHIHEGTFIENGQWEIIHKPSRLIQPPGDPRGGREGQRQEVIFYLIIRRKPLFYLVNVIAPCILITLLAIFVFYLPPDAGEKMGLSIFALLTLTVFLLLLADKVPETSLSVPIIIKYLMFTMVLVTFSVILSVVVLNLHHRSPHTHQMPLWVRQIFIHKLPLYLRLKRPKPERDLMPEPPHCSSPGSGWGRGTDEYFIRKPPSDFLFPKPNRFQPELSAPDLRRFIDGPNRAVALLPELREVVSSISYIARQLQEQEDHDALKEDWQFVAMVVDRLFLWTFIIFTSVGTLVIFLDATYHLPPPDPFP", "T4 sequence (Q07001 22-517)": "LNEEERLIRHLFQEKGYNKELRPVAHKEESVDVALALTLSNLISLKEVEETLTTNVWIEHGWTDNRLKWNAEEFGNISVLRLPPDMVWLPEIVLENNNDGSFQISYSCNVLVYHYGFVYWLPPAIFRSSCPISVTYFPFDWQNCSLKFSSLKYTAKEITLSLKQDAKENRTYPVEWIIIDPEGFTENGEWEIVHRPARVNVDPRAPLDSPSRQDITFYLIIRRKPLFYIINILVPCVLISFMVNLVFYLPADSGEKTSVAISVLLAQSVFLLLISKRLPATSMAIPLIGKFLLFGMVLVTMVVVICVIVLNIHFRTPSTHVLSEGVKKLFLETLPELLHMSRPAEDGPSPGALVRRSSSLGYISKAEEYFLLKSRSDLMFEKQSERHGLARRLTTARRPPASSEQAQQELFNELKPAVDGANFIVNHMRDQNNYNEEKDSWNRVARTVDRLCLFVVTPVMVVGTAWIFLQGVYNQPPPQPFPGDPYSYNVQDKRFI", "T4 sequence (P07510 23-517)": "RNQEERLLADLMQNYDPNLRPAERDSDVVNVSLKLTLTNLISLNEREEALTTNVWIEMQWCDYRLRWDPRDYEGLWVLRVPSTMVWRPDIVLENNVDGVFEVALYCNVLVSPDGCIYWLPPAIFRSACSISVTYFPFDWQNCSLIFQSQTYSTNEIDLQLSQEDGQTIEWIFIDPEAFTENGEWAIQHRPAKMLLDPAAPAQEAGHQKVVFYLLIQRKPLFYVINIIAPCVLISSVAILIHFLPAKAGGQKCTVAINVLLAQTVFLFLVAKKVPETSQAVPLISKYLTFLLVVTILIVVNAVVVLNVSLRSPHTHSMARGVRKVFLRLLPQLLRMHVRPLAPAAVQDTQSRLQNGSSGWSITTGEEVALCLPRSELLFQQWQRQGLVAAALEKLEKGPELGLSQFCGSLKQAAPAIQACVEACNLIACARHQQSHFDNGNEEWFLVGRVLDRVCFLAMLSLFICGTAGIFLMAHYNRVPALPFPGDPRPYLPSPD", "test": "Off-target radioligand binding assay, α1 nAChR", "details": "1 μM; significant at ≥50% inhibition or stimulation", "description": "as §1"}, "human α3β4 nAChR": {"target": "T5, human α3β4 nAChR (Homo sapiens, UniProt P30926+P32297)", "T5 construct": "expressed in transfected cells; host or cells: HEK293", "T5 sequence (P32297 32-505)": "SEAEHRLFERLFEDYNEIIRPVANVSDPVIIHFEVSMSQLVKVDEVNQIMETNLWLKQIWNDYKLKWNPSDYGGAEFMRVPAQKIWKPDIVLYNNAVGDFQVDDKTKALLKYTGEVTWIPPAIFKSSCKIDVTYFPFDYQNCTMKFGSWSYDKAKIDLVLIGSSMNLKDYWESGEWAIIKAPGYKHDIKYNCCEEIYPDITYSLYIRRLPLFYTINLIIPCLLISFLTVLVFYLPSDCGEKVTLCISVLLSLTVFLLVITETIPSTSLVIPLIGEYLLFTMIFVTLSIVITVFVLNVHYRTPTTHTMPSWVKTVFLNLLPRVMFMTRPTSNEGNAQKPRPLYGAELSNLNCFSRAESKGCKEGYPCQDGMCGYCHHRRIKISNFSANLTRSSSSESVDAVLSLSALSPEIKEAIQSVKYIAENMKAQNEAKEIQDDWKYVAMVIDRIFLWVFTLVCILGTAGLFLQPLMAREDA", "T5 sequence (P30926 22-498)": "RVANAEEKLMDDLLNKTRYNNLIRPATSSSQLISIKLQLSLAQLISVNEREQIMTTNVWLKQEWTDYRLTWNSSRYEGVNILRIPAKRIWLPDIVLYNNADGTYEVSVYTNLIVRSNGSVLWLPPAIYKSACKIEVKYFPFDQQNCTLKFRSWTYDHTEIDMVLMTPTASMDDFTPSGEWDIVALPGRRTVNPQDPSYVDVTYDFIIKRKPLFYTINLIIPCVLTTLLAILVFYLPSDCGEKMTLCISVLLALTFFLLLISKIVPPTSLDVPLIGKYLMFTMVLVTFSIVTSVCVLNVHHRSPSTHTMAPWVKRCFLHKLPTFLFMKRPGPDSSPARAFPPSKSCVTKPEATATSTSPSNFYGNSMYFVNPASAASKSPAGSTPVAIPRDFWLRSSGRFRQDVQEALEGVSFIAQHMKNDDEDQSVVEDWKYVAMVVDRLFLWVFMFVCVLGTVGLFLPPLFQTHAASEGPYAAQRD", "test": "Radioligand displacement at human α3β4 nAChR, [3H]epibatidine, HEK293 cells", "type": "binding", "details": "stably transfected HEK-293 cells, [3H]epibatidine; read-out: Affinity (Ki in nM) hα3β4", "description": "(§2) The affinity of the test compounds for human α4β2 and α3β4 nAChR was determined as described above. In brief, HEK293 cells stably expressing human α4β2 or α3β4 nAChR [66] were cultured. […] Nonspecific binding was determined in the presence of 300 μM (−)-nicotine tartrate. Incubation of the samples, separation of free from receptor-bound radioligand, and data evaluation were performed as described above."}, "α3β4 nAChR": {"target": "α3β4 nAChR", "design": "method as in PMID 24050653", "details": "rat receptor subtype; cited from earlier work"}, "[4]": {"system": "monoamine transporter (VMAT)", "test": "Off-target radioligand binding assay, VMAT", "details": "1 μM; significant at ≥50% inhibition or stimulation", "description": "as §1"}, "α7 nAChR [5]": {"target": "α7 nAChR", "details": "[125I]α-bungarotoxin labelled rat cortical membranes; cited from earlier work"}, "[6]": {"target": "T6, dopamine transporter (DAT) (Homo sapiens, UniProt Q01959)", "T6 construct": "Eurofins Panlabs, Inc", "T6 sequence (Q01959 whole entry, species assumed)": "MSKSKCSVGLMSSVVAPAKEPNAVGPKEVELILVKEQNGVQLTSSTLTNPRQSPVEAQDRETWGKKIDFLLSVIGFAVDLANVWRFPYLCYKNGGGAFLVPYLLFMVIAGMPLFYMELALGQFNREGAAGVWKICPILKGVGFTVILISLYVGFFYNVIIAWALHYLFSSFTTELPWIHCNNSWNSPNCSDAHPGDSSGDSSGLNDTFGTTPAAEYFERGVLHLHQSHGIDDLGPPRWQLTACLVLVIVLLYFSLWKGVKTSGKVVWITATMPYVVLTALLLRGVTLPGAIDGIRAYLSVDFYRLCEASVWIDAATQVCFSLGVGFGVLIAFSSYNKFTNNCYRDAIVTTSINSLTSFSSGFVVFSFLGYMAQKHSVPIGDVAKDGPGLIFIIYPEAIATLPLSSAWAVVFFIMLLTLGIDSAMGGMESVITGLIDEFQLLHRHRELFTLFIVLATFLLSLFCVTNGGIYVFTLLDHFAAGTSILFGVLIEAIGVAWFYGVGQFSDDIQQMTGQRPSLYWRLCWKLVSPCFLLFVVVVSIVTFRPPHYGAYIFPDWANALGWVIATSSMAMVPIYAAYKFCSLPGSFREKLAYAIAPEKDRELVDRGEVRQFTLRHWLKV", "test": "Off-target radioligand binding assay, DAT", "details": "1 μM; significant at ≥50% inhibition or stimulation", "description": "as §1"}, "human α7 nAChR": {"target": "T7, human α7 nAChR (Homo sapiens, UniProt P36544)", "T7 construct": "expressed in transfected cells; host or cells: SH-SY5Y", "T7 sequence (P36544 23-502)": "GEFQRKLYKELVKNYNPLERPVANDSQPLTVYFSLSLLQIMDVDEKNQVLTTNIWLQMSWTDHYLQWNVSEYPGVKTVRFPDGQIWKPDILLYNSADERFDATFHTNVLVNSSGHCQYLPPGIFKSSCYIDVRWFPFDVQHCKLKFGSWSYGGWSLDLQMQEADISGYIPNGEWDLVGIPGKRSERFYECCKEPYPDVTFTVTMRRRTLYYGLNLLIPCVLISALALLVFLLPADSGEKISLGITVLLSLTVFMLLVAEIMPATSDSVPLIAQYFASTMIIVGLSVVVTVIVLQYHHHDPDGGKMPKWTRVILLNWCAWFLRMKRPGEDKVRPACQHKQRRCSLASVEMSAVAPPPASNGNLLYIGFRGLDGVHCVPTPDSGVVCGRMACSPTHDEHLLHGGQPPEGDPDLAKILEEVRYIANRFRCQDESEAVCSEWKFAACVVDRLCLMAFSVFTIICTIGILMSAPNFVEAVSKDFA", "test": "Radioligand displacement at human α7 nAChR, [3H]methyllycaconitine, SH-SY5Y cells", "type": "binding"}, "rat α6β2* nAChR": {"target": "rat α6β2* nAChR (Rattus norvegicus, UniProt P12390+P43143)", "test": "[3H]epibatidine binding to antibody-immobilized native rat α6β2* nAChR from striatum", "details": "read-out: Affinity (Ki in nM) rα6β2*, immunoimmobilization with anti-rα6 antibody, [3H]epibatidine 0.1 nM", "description": "The specificity of the anti-α6 antibody was tested as described. The receptors were prepared and immobilized as previously described by the subunit-specific antibody. […] Incubations were performed in a buffer containing 50 mM Tris-HCl, pH 7, 150 mM NaCl, 5 mM KCl, 1 mM MgCl2, 2.5 mM CaCl2, 2 mg∙mL^−1 BSA, and 0.05% Tween 20. Specific ligand binding was defined as total binding minus the binding in the presence of 100 nM (±)-epibatidine dihydrochloride hydrate.\nThe experimental data obtained from the binding experiments were analyzed by means of a non-linear least square procedure using the LIGAND program. The Ki values of the test compounds were also determined by means of the LIGAND program by simultaneously fitting the data obtained from three to five independent saturation and competition binding experiments."}, "[7]": {"target": "T8, serotonin transporter (SERT) (Homo sapiens, UniProt P31645)", "T8 construct": "Eurofins Panlabs, Inc", "T8 sequence (P31645 whole entry, species assumed)": "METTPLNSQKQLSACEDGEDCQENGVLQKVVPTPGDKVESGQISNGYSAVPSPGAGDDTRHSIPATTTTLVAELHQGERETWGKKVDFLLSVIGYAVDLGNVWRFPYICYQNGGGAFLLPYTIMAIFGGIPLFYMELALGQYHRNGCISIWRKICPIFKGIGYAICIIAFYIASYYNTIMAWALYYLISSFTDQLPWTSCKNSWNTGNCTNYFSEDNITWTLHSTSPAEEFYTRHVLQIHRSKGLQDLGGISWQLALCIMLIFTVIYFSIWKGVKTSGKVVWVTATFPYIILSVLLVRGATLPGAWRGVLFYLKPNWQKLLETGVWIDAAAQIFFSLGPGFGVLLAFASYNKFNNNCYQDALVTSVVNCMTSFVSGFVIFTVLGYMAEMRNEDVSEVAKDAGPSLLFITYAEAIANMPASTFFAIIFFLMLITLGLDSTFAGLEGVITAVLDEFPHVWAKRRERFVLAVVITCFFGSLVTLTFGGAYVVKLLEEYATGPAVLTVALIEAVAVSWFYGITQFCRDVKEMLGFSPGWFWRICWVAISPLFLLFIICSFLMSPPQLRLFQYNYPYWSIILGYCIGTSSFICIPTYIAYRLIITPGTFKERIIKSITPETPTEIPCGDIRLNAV", "test": "Off-target radioligand binding assay, SERT", "details": "1 μM; significant at ≥50% inhibition or stimulation", "description": "as §1"}, "human α4β2 nAChR": {"target": "T9, human α4β2 nAChR (Homo sapiens, UniProt P17787+P43681)", "T9 construct": "expressed in transfected cells; host or cells: HEK293", "test": "Radioligand displacement at human α4β2 nAChR, [3H]epibatidine, HEK293 cells", "type": "binding", "details": "stably transfected HEK-293 cells, [3H]epibatidine; read-out: Affinity (Ki in nM) hα4β2", "description": "as §2"}},
  "note": "Like-named read-outs stand apart in the source and are kept apart here.",
  "data": [
    {"smiles": "CCN(CC)CCOc1ccc2c(c1)C(=O)c1cc(OCCN(CC)CC)ccc1-2", "note": "[tilorone]", "values": [
      {"measurement": "Ki", "setting": "α7 nAChR [1]", "result": 0.056, "unit": "µM"}
    ]},
    {"smiles": "O=S1(=O)c2ccc(F)cc2-c2ccc(N3CCN4CCC3CC4)cc21", "note": "[Compound 10a, 7-(1,4-Diazabicyclo[3.2.2]nonan-4-yl)-2-fluorodibenzo[b,d]thiophene 5,5-dioxide]", "values": [
      {"measurement": "inhibition at 0.1 µM", "setting": "human 5-HT3 receptor; 0.1 μM concentration of test compound, [3H]GR65630 binding, read-out: 5-HT3 percentage of inhibition", "result": 2, "unit": "%"},
      {"measurement": "Ki", "setting": "human 5-HT3 receptor; recombinant HEK293 cells, [3H]GR65630, estimated from seven concentrations (20 μM–5 nM), read-out: Affinity (Ki in nM) 5-HT3", "result": 440, "unit": "nM"},
      {"measurement": "body weights, control vs treated groups", "setting": "[2]; 6.2, 62 and 620 μg∙kg^−1 single i.v., either gender", "result": "No statistically significant differences"},
      {"measurement": "clinical observation", "setting": "[2]; 6.2, 62 and 620 μg∙kg^−1 single i.v., rats", "result": "no notable clinical effects"},
      {"measurement": "pathological and histopathological parameters", "setting": "[2]; single i.v., Day 2 or Day 15, rats", "result": "did not result in changes"},
      {"measurement": "no observed effect level (NOEL)", "setting": "[2]; single intravenous injection, rats, observation 2 or 15 day", "result": 0.62, "unit": "mg/kg"},
      {"measurement": "binding to NET", "setting": "[3]", "result": "no significant binding"},
      {"measurement": "binding to choline transporter", "setting": "choline transporter", "result": "no significant binding"},
      {"measurement": "binding to α1 nAChR", "setting": "α1 nAChR", "result": "no significant binding"},
      {"measurement": "Ki", "setting": "human α3β4 nAChR", "result": "119 ± 29", "unit": "nM"},
      {"measurement": "Ki", "setting": "α3β4 nAChR", "result": 5, "unit": "µM"},
      {"measurement": "binding to VMAT", "setting": "[4]", "result": "no significant binding"},
      {"measurement": "Ki", "setting": "α7 nAChR [5]", "result": 0.0014, "unit": "µM"},
      {"measurement": "binding to DAT", "setting": "[6]", "result": "no significant binding"},
      {"measurement": "Selectivity (Ki ratio) α7/α3β4", "setting": "human α7 nAChR; Ki hα3β4 divided by Ki hα7", "result": 198},
      {"measurement": "Selectivity (Ki ratio) α7/α4β2", "setting": "human α7 nAChR; Ki hα4β2 divided by Ki hα7", "result": 862},
      {"measurement": "Ki", "setting": "human α7 nAChR; stably transfected SH-SY5Y cells, [3H]methyllycaconitine, read-out: Affinity (Ki in nM) hα7", "result": "0.6 ± 0.44", "unit": "nM"},
      {"measurement": "Ki", "setting": "rat α6β2* nAChR", "result": "589 ± 217", "unit": "nM"},
      {"measurement": "binding to SERT", "setting": "[7]", "result": "no significant binding"},
      {"measurement": "Ki", "setting": "human α4β2 nAChR", "result": "517 ± 375", "unit": "nM"}
    ]}
  ]
}
